Experimental data: article PMC9950073, “Alleviation of arthritis through prevention of neutrophil extracellular traps by an orally available inhibitor of protein arginine deiminase 4” (Scientific Reports, 2023)

How the values were obtained:
mouse neutrophils = assay: In vitro NET assay, mouse neutrophils; format: cell-based; conditions: pretreatment 10 μM for 15 min, ionomycin 4 µM 4 h
Experimental: Mouse peripheral blood was collected by retro-orbital puncture in ethylenediaminetetraacetic acid (EDTA) anticoagulated buffer supplemented with 1% endotoxin-free BSA in sterile PBS. Neutrophils were isolated by Percoll gradient centrifugation as described previously. The purity of neutrophils was more than 90% as confirmed by the Wright-Giemsa stain.
Mouse or human neutrophils were resuspended in HEPES-supplemented phenol red-free RPMI1640 medium and 1.5 × 10^4 cells were seeded per well in a 96-well plate. After incubating for 20 min at 37 °C and 5% CO2, the cells were stimulated with vehicle control or ionomycin (Sigma, Catalog No: I24222) (4 µM) for 4 h. Neutrophils were fixed with 4% paraformaldehyde (PFA), washed and permeabilized (0.1% Triton X-100, 0.1% sodium citrate) for 10 min at 4 °C. Subsequently, neutrophils were incubated with blocking buffer (2.5% BSA, 0.5% Tween-20 in 1 × PBS) at room temperature for an hour followed by overnight incubation with the primary antibody against citrullinated histone H4 (H4Cit, 1:250, catalog number: 07-596, Millipore, Burlington, MA). […] Images were obtained with a Zeiss Axiovert 200 M wide-field fluorescence microscope (Zeiss, Oberkochen, Germany) with the Zeiss AxioVision software. The percentages of H4Cit positive neutrophils and neutrophil extracellular traps (NETs) were calculated by quantifying more than 200 randomly selected cells. […]

CYP1A2 = target: T1, CYP1A2 (Homo sapiens, UniProt P05177); assay: CYP inhibition in human liver microsome, CYP1A2; format: in vitro ADME
T1 construct: from tissue; host or cells: human liver microsomes
T1 sequence (P05177 1-516): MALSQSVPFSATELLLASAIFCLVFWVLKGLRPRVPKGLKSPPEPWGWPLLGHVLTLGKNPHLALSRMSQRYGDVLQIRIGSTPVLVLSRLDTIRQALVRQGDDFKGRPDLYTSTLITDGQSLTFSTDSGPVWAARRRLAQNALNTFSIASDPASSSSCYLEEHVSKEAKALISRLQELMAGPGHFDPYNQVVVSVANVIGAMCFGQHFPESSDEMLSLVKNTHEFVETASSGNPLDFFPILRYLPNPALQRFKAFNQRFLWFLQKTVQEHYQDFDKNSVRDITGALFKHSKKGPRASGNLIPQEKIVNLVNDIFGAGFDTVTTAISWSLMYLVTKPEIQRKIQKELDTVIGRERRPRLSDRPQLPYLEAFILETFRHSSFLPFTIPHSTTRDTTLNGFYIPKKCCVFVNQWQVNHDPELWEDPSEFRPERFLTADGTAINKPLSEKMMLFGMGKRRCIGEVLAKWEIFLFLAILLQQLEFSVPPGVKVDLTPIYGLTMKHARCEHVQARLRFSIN
Experimental: CYP inhibition: Human liver microsome (0.1–0.5 mg/mL for various CYPs) and appropriate probe substrates (2.5–20 µM) were incubated in potassium phosphate buffer with or without JBI-589 for 5 min at 37 °C. The reaction was initiated by addition of NADPH (1 mM), incubated at 37 °C for 10 min and quenched (0.5% Formic acid in internal standard (IS) containing ACN). Samples were then centrifuged and taken for LC–MS/MS analysis. Percent change in metabolite formation for each substrate under above conditions using formula: Percent inhibition = [1 − (test area ratio/control area ratio)] *100.

Cc1c(-c2cc3ccccc3n2Cc2ccc(F)cc2)nc2cc(C(=O)N3CCC[C@@H](N)C3)ccn12 [JBI-589, (R)-(3-aminopiperidin-1-yl)(2-(1-(4-fluorobenzyl)-1H-indol-2-yl)-3-methylimidazo[1,2-a]pyridin-7-yl)methanone]
H4Cit positivity (mouse neutrophils): markedly diminished | NET formation (mouse neutrophils): markedly diminished | inhibition at 10 min, 10 µM (CYP1A2; human liver microsomes, 10 µM, human liver microsome, read-out: CYP1A2 inhibition (% inh @10 µM)): < 50% | IC50 (CYP1A2; predicted from % inhibition, text says major CYPs tested): > 10 µM
